{"source": "the supplement of paper PMC10307832", "assay_in_all_cases": "relative viability (nuclei count vs DMSO), 5 days (fraction); higher = more cells survive", "key": {"[1]": {"compound": "C1COCCN1CC2=CC(=O)C(=CO2)OCCCCCSC3=C4C=CC(=CC4=NC=C3)C(F)(F)F [EHT 1864] + NC(=O)Nc1cc(-c2cccc(F)c2)sc1C(=O)N[C@H]1CCCNC1 [AZD7762] (partner 0.2 µM)", "method_in_brief": "(§1)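 For relative viability, nuclei counts in treated wells were divided by those in vehicle wells. Lung cancer cell lines had been pin-tool dosed in 1536-well plates the day after seeding and cultured for 5 days, then fixed and stained in one step (final 0.05% Triton X-100, 1% formaldehyde, 1 ug/ml Hoechst) and imaged at 4×. Doses were one drug alone or a fixed anchor-drug dose plus five library-drug doses (not always all listed) in √10 steps, and values are duplicate-plate medians.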"}, "[2]": {"compound": "C1COCCN1CC2=CC(=O)C(=CO2)OCCCCCSC3=C4C=CC(=CC4=NC=C3)C(F)(F)F [EHT 1864] + Nc1nc2[nH]cc(CCc3ccc(C(=O)N[C@@H](CCC(=O)O)C(=O)O)cc3)c2c(=O)[nH]1 [Pemetrexed] (partner 0.2 µM)", "method_in_brief": "as §1"}, "[3]": {"compound": "C1COCCN1CC2=CC(=O)C(=CO2)OCCCCCSC3=C4C=CC(=CC4=NC=C3)C(F)(F)F [EHT 1864] + COc1cccc2cc(-c3nc([C@H]4CC[C@H](C(=O)O)CC4)n4ncnc(N)c34)[nH]c12 [OSI-027] (partner 0.5 µM)", "method_in_brief": "as §1"}, "[4]": {"compound": "C1COCCN1CC2=CC(=O)C(=CO2)OCCCCCSC3=C4C=CC(=CC4=NC=C3)C(F)(F)F [EHT 1864] + COc1cc2c(Oc3ccc(NC(=O)C4(C(=O)Nc5ccc(F)cc5)CC4)cc3F)ccnc2cc1OCCCN1CCOCC1 [Foretinib] (partner 0.25 µM)", "method_in_brief": "as §1"}}}
{"cell line": "NCI-H2342", "values": [{"measurement": "relative viability", "setting": "[1]; first compound 0.04 µM", "result": 0.426}, {"measurement": "relative viability", "setting": "[1]; first compound 0.1265 µM", "result": 0.438}, {"measurement": "relative viability", "setting": "[1]; first compound 0.4 µM", "result": 0.472}, {"measurement": "relative viability", "setting": "[1]; first compound 1.265 µM", "result": 0.51}, {"measurement": "relative viability", "setting": "[1]; first compound 4 µM", "result": 0.492}, {"measurement": "relative viability", "setting": "[2]; first compound 0.04 µM", "result": 0.603}, {"measurement": "relative viability", "setting": "[2]; first compound 0.1265 µM", "result": 0.704}, {"measurement": "relative viability", "setting": "[2]; first compound 0.4 µM", "result": 0.788}, {"measurement": "relative viability", "setting": "[2]; first compound 1.265 µM", "result": 0.709}, {"measurement": "relative viability", "setting": "[2]; first compound 4 µM", "result": 0.742}, {"measurement": "relative viability", "setting": "[3]; first compound 0.04 µM", "result": 0.529}, {"measurement": "relative viability", "setting": "[3]; first compound 0.1265 µM", "result": 0.555}, {"measurement": "relative viability", "setting": "[3]; first compound 0.4 µM", "result": 0.576}, {"measurement": "relative viability", "setting": "[3]; first compound 1.265 µM", "result": 0.573}, {"measurement": "relative viability", "setting": "[3]; first compound 4 µM", "result": 0.636}, {"measurement": "relative viability", "setting": "[4]; first compound 0.04 µM", "result": 1.04}, {"measurement": "relative viability", "setting": "[4]; first compound 0.1265 µM", "result": 0.903}, {"measurement": "relative viability", "setting": "[4]; first compound 0.4 µM", "result": 1.07}, {"measurement": "relative viability", "setting": "[4]; first compound 1.265 µM", "result": 0.963}, {"measurement": "relative viability", "setting": "[4]; first compound 4 µM", "result": 1.06}]}
{"cell line": "HCC-44", "values": [{"measurement": "relative viability", "setting": "[1]; first compound 0.04 µM", "result": 1.01}, {"measurement": "relative viability", "setting": "[1]; first compound 0.1265 µM", "result": 0.896}, {"measurement": "relative viability", "setting": "[1]; first compound 0.4 µM", "result": 0.934}, {"measurement": "relative viability", "setting": "[1]; first compound 1.265 µM", "result": 1.03}, {"measurement": "relative viability", "setting": "[1]; first compound 4 µM", "result": 1.01}, {"measurement": "relative viability", "setting": "[2]; first compound 0.04 µM", "result": 0.603}, {"measurement": "relative viability", "setting": "[2]; first compound 0.1265 µM", "result": 0.594}, {"measurement": "relative viability", "setting": "[2]; first compound 0.4 µM", "result": 0.618}, {"measurement": "relative viability", "setting": "[2]; first compound 1.265 µM", "result": 0.674}, {"measurement": "relative viability", "setting": "[2]; first compound 4 µM", "result": 0.674}, {"measurement": "relative viability", "setting": "[3]; first compound 0.04 µM", "result": 0.573}, {"measurement": "relative viability", "setting": "[3]; first compound 0.1265 µM", "result": 0.383}, {"measurement": "relative viability", "setting": "[3]; first compound 0.4 µM", "result": 0.525}, {"measurement": "relative viability", "setting": "[3]; first compound 1.265 µM", "result": 0.522}, {"measurement": "relative viability", "setting": "[3]; first compound 4 µM", "result": 0.575}]}
{"cell line": "NCI-H2228", "values": [{"measurement": "relative viability", "setting": "[2]; first compound 0.04 µM", "result": 0.323}, {"measurement": "relative viability", "setting": "[2]; first compound 0.1265 µM", "result": 0.341}, {"measurement": "relative viability", "setting": "[2]; first compound 0.4 µM", "result": 0.318}, {"measurement": "relative viability", "setting": "[2]; first compound 4 µM", "result": 0.34}, {"measurement": "relative viability", "setting": "[3]; first compound 0.04 µM", "result": 0.637}, {"measurement": "relative viability", "setting": "[3]; first compound 0.1265 µM", "result": 0.48}, {"measurement": "relative viability", "setting": "[3]; first compound 0.4 µM", "result": 0.666}, {"measurement": "relative viability", "setting": "[3]; first compound 1.265 µM", "result": 0.522}, {"measurement": "relative viability", "setting": "[3]; first compound 4 µM", "result": 0.588}, {"measurement": "relative viability", "setting": "[4]; first compound 0.04 µM", "result": 0.81}, {"measurement": "relative viability", "setting": "[4]; first compound 0.1265 µM", "result": 0.758}, {"measurement": "relative viability", "setting": "[4]; first compound 0.4 µM", "result": 0.904}, {"measurement": "relative viability", "setting": "[4]; first compound 1.265 µM", "result": 0.836}, {"measurement": "relative viability", "setting": "[4]; first compound 4 µM", "result": 0.9}]}
{"cell line": "ABC-1", "values": [{"measurement": "relative viability", "setting": "[1]; first compound 0.04 µM", "result": 0.977}, {"measurement": "relative viability", "setting": "[1]; first compound 0.1265 µM", "result": 0.805}, {"measurement": "relative viability", "setting": "[1]; first compound 0.4 µM", "result": 0.623}, {"measurement": "relative viability", "setting": "[1]; first compound 1.265 µM", "result": 0.843}, {"measurement": "relative viability", "setting": "[1]; first compound 4 µM", "result": 1.52}, {"measurement": "relative viability", "setting": "[3]; first compound 0.04 µM", "result": 0.469}, {"measurement": "relative viability", "setting": "[3]; first compound 0.1265 µM", "result": 0.504}, {"measurement": "relative viability", "setting": "[3]; first compound 0.4 µM", "result": 0.48}, {"measurement": "relative viability", "setting": "[3]; first compound 1.265 µM", "result": 0.513}, {"measurement": "relative viability", "setting": "[3]; first compound 4 µM", "result": 0.436}, {"measurement": "relative viability", "setting": "[4]; first compound 0.04 µM", "result": 1.22}, {"measurement": "relative viability", "setting": "[4]; first compound 0.1265 µM", "result": 1.06}, {"measurement": "relative viability", "setting": "[4]; first compound 0.4 µM", "result": 1.03}, {"measurement": "relative viability", "setting": "[4]; first compound 1.265 µM", "result": 0.954}, {"measurement": "relative viability", "setting": "[4]; first compound 4 µM", "result": 0.834}]}
{"cell line": "COR-L23", "values": [{"measurement": "relative viability", "setting": "[2]; first compound 0.04 µM", "result": 0.197}, {"measurement": "relative viability", "setting": "[2]; first compound 0.1265 µM", "result": 0.193}, {"measurement": "relative viability", "setting": "[2]; first compound 0.4 µM", "result": 0.196}, {"measurement": "relative viability", "setting": "[2]; first compound 1.265 µM", "result": 0.194}, {"measurement": "relative viability", "setting": "[2]; first compound 4 µM", "result": 0.214}, {"measurement": "relative viability", "setting": "[3]; first compound 0.04 µM", "result": 0.821}, {"measurement": "relative viability", "setting": "[3]; first compound 0.1265 µM", "result": 0.467}, {"measurement": "relative viability", "setting": "[3]; first compound 0.4 µM", "result": 0.647}, {"measurement": "relative viability", "setting": "[3]; first compound 1.265 µM", "result": 0.796}, {"measurement": "relative viability", "setting": "[3]; first compound 4 µM", "result": 0.747}, {"measurement": "relative viability", "setting": "[4]; first compound 0.04 µM", "result": 1.01}, {"measurement": "relative viability", "setting": "[4]; first compound 0.1265 µM", "result": 0.922}, {"measurement": "relative viability", "setting": "[4]; first compound 0.4 µM", "result": 1}, {"measurement": "relative viability", "setting": "[4]; first compound 1.265 µM", "result": 0.948}, {"measurement": "relative viability", "setting": "[4]; first compound 4 µM", "result": 0.86}]}
